Literature values as cited in US7432394B2, “Resolution of α-(phenoxy) phenylacetic acid derivatives with naphthyl-alkylamines” (Metabolex, Inc., priority 2005, dated 2008).

Molecular target: cytochrome P450 2C9 (Homo sapiens, UniProt P11712)
Sequence (P11712 whole entry): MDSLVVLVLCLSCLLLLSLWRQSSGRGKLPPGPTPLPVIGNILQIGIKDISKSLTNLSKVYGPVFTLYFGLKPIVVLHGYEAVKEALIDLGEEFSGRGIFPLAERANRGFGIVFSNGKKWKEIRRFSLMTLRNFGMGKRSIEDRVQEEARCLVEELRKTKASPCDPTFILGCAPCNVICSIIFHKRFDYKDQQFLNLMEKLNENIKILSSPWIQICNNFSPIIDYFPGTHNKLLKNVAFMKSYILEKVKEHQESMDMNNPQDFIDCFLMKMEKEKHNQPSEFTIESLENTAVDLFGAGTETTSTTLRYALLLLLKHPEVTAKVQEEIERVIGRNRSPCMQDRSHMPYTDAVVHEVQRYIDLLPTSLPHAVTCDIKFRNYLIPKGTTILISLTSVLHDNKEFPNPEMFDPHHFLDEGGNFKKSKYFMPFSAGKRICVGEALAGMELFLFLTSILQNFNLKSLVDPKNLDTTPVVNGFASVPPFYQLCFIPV

inhibition of cytochrome P450 2C9 (racemic acid, result in words) | ability to inhibit cytochrome P450 2C9 compared to the (+)-enantiomer (fold less active than the (+)-enantiomer of halofenic acid) | SMILES
inhibits cytochrome P450 2C9 |  | O=C(O)C(Oc1cccc(C(F)(F)F)c1)c1ccc(Cl)cc1 (racemic) [halofenic acid, (4-chlorophenyl)(3-trifluoromethylphenoxy)acetic acid]
 | about twenty-fold less active | O=C(O)C(Oc1cccc(C(F)(F)F)c1)c1ccc(Cl)cc1 (single isomer, unassigned; (-)) [(−)-enantiomer of halofenic acid, (−)-4-chloro-α-(3-trifluoromethylphenoxy)phenylacetic acid]
